Target: T1, ADP sensor (mTFP1-ParM-mVenus cp157 terminal fusion; ADPrime sensor, soluble form) (Escherichia coli, UniProt P11904, C287A/K33A/T174A/T175N)
T1 construct: ParM flanked by FRET reporters: wild-type mTFP1 via SGITS linker at N-terminus, mVenus-cp157 via AAA linker at C-terminus; expressed in E. coli DH5alpha
T1 sequence (P11904 1-320 K33A/T174A/T175N/C287A): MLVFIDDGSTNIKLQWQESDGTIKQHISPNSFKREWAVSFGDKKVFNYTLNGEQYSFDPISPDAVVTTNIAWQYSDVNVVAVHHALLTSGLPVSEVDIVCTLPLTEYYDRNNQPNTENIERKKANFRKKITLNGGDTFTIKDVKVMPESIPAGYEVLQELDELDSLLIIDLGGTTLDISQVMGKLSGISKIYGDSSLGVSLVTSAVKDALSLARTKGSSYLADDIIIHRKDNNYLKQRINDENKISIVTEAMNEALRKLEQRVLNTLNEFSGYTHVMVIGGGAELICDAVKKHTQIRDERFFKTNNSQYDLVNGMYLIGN
Test: FRET ratio (mTFP1/mVenus) dose response, Hill fit
Assay type: binding
Settings: read-out: apparent Kd

SMILES | Kd
Nc1ncnc2c1ncn2[C@@H]1O[C@H](COP(=O)(O)OP(=O)(O)OP(=O)(O)O)[C@@H](O)[C@H]1O [ATP] | 9.9 ± 6.3 µM
Nc1ncnc2c1ncn2[C@@H]1O[C@H](COP(=O)(O)OP(=O)(O)O)[C@@H](O)[C@H]1O [ADP] | 0.16 ± 0.06 µM

Source: article PMC6695626, “Detection of Osmotic Shock-Induced Extracellular Nucleotide Release with a Genetically Encoded Fluorescent Sensor of ADP and ATP” (Sensors (Basel, Switzerland), 2019)
